In PubChem BioAssay AID256 (DTP/NCI, 2004):
Values joined by “and” are separate entries in the source; they are usually repeats but may differ in a detail not shown here. Equal entries are not always repeated. Toxic doses and inconclusive results are not listed.

System: CD2F1 mice, L1210 leukemia ip, survival T/C
Assay: NCI In Vivo Anticancer Drug Screen. Data for tumor model L1210 Leukemia (intraperitoneal) in CD2F1 (CDF1) mice
Conditions: endpoint: mean survival time, higher = longer survival
In short: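 Tumor-bearing mice (transplanted tumor) were split into treated and vehicle control groups, and the measured endpoint of each treated group was divided by that of its vehicle controls.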

[1] = dose: 12.5 mg/kg/injection, schedule: Q01DX009 (ip), vehicle: saline with Tween-80
[2] = dose: 25.0 mg/kg/injection, schedule: Q01DX009 (ip), vehicle: saline with Tween-80
[3] = dose: 50.0 mg/kg/injection, schedule: Q01DX009 (ip), vehicle: saline with Tween-80
[4] = dose: 200.0 mg/kg/injection, schedule: Q01DX009 (ip), vehicle: saline with Tween-80
[5] = dose: 12.5 mg/kg/injection, schedule: Q04DX003 (ip), vehicle: saline with Tween-80
[6] = dose: 25.0 mg/kg/injection, schedule: Q04DX003 (ip), vehicle: saline with Tween-80
[7] = dose: 50.0 mg/kg/injection, schedule: Q04DX003 (ip), vehicle: saline with Tween-80
[8] = dose: 12.5 mg/kg/injection, schedule: Q04DX002 (ip), vehicle: saline with Tween-80
[9] = dose: 25.0 mg/kg/injection, schedule: Q04DX002 (ip), vehicle: saline with Tween-80
[10] = dose: 100.0 mg/kg/injection, schedule: Q01DX009 (ip), vehicle: saline with Tween-80
[11] = dose: 100.0 mg/kg/injection, schedule: Q04DX003 (ip), vehicle: saline with Tween-80
[12] = dose: 200.0 mg/kg/injection, schedule: Q04DX003 (ip), vehicle: saline with Tween-80
[13] = dose: 400.0 mg/kg/injection, schedule: Q01DX009 (ip), vehicle: saline with Tween-80
[14] = dose: 400.0 mg/kg/injection, schedule: Q04DX003 (ip), vehicle: saline with Tween-80

CCCCCCCCCCCCCC(CCCC)CCCCCCCC (stereo unspecified)
T/C (dose: 100.0 mg/kg/injection, schedule: Q01DX001 (ip), vehicle: saline sonified): 107 % of control | T/C (dose: 200.0 mg/kg/injection, schedule: Q01DX001 (ip), vehicle: saline sonified): 95 % of control | T/C (dose: 400.0 mg/kg/injection, schedule: Q01DX001 (ip), vehicle: saline sonified): 102 % of control

COc1cc(Cl)ccc1NC(=O)N1CCN(c2ccccc2)CC1
T/C [1]: 96 % of control | T/C [2]: 96 % of control | T/C [3]: 92 % of control and 93 % of control | T/C [4]: 86 % of control

COc1cc(NC(=O)CCl)ccc(=O)c1
T/C [1]: 106 % of control | T/C [5]: 99 % of control | T/C [2]: 104 % of control | T/C [6]: 91 % of control | T/C [3]: 90 % of control | T/C [7]: 94 % of control

CC(C)(CO)COS(=O)(=O)c1ccc(Br)cc1
T/C [1]: 95 % of control | T/C [2]: 95 % of control | T/C [3]: 95 % of control

Cc1sc2cc(N)ccc2[n+]1C
T/C [8]: 102 % of control | T/C [9]: 98 % of control | T/C (dose: 50.0 mg/kg/injection, schedule: Q04DX002 (ip), vehicle: saline with Tween-80): 95 % of control | T/C (dose: 100.0 mg/kg/injection, schedule: Q04DX002 (ip), vehicle: saline with Tween-80): 98 % of control | T/C (dose: 200.0 mg/kg/injection, schedule: Q04DX002 (ip), vehicle: saline with Tween-80): 109 % of control

COc1ccc2c(c1O)CNCC2c1ccc(O)c(C)c1 (stereo unspecified)
T/C (dose: 75.0 mg/kg/injection, schedule: Q01DX001 (ip), vehicle: saline): 98 % of control

O=C(OC(c1ccccc1)c1ccccc1)C(CSC(c1ccccc1)(c1ccccc1)c1ccccc1)NC(c1ccccc1)(c1ccccc1)c1ccccc1 (stereo unspecified)
T/C (dose: 50.0 mg/kg/injection, schedule: Q01DX009 (ip), vehicle: saline): 96 % of control | T/C (dose: 100.0 mg/kg/injection, schedule: Q01DX009 (ip), vehicle: saline): 101 % of control | T/C (dose: 200.0 mg/kg/injection, schedule: Q01DX009 (ip), vehicle: saline): 102 % of control | T/C (dose: 400.0 mg/kg/injection, schedule: Q01DX009 (ip), vehicle: saline): 98 % of control

[I-].[Ni+2].[O-]/N=C/c1ccccn1.[O-]/N=C/c1ccccn1.[O-]/N=C/c1ccccn1
T/C (dose: 100.0 mg/kg/injection, schedule: Q01DX001 (ip), vehicle: saline): 106 % of control

O=C1C(Br)=C(Br)C(=O)C(Br)=C1Br
T/C [3]: 91 % of control | T/C [10]: 94 % of control | T/C [4]: 86 % of control

O=[N+]([O-])c1cccc(/C=C/C=C/c2cccc(S(=O)(=O)F)c2)c1
T/C [10]: 100 % of control | T/C [11]: 93 % of control | T/C [4]: 93 % of control | T/C [12]: 96 % of control | T/C [13]: 95 % of control | T/C [14]: 90 % of control

O=C(Nc1ccc(C2=NCCN2)cc1)c1ccc(C(=O)Nc2ccc(C3=NCCN3)cc2)cc1
T/C (dose: 1.25 mg/kg/injection, schedule: Q01DX008 (iv), vehicle: other): 103 % of control | T/C (dose: 2.5 mg/kg/injection, schedule: Q01DX008 (iv), vehicle: other): 103 % of control | T/C (dose: 5.0 mg/kg/injection, schedule: Q01DX008 (iv), vehicle: other): 108 % of control | T/C (dose: 50.0 mg/kg/injection, schedule: Q04DX003 (ip), vehicle: water): 112 % of control | T/C (dose: 100.0 mg/kg/injection, schedule: Q01DX007 (ip), vehicle: water): 153 % of control | T/C (dose: 100.0 mg/kg/injection, schedule: Q04DX003 (ip), vehicle: water): 118 % of control | T/C (dose: 200.0 mg/kg/injection, schedule: Q01DX007 (ip), vehicle: water): 170 % of control | T/C (dose: 200.0 mg/kg/injection, schedule: Q01DX009 (ip), vehicle: water): 186 % of control

CCCCC(OC(=O)c1ccc([N+](=O)[O-])cc1)C(C)[N+](=O)[O-] (stereo unspecified)
T/C [11]: 104 % of control | T/C [12]: 97 % of control | T/C [14]: 104 % of control

C(=Nc1ccc(-c2ccccc2)cc1)c1ccccc1
T/C [10]: 87 % of control | T/C [13]: 91 % of control

CCN(CC)C(=O)Cc1ccc2c3c(cccc13)CC2
T/C [11]: 98 % of control | T/C [12]: 98 % of control | T/C [14]: 92 % of control

N#Cc1ncc(Cl)cc1[N+](=O)[O-]
T/C [5]: 101 % of control | T/C [6]: 101 % of control | T/C [7]: 101 % of control

COc1cc(Cl)ccc1NC(=O)Oc1ccc(Br)cc1
T/C [3]: 92 % of control | T/C [10]: 96 % of control | T/C [4]: 87 % of control

CC(OC1OC(C(=O)O)C(O)C(O)C1O)c1ccccc1 (stereo unspecified)
T/C (dose: 100.0 mg/kg/injection, schedule: Q04DX003 (ip), vehicle: saline): 98 % of control | T/C (dose: 200.0 mg/kg/injection, schedule: Q04DX003 (ip), vehicle: saline): 98 % of control | T/C (dose: 400.0 mg/kg/injection, schedule: Q04DX003 (ip), vehicle: saline): 93 % of control

CCOC(OCC)n1ncnc1NC(=S)NCc1ccccc1
T/C (dose: 12.5 mg/kg/injection, schedule: Q01DX001 (ip), vehicle: carboxymethylcellulose (CMC)): 100 % of control | T/C (dose: 25.0 mg/kg/injection, schedule: Q01DX001 (ip), vehicle: carboxymethylcellulose (CMC)): 95 % of control | T/C (dose: 50.0 mg/kg/injection, schedule: Q01DX001 (ip), vehicle: carboxymethylcellulose (CMC)): 93 % of control | T/C (dose: 100.0 mg/kg/injection, schedule: Q01DX001 (ip), vehicle: carboxymethylcellulose (CMC)): 108 % of control | T/C (dose: 200.0 mg/kg/injection, schedule: Q01DX001 (ip), vehicle: carboxymethylcellulose (CMC)): 91 % of control

O=C(Nc1cccnc1)c1ccccc1
T/C (dose: 6.25 mg/kg/injection, schedule: Q01DX009 (ip), vehicle: saline with Tween-80): 102 % of control | T/C [1]: 102 % of control | T/C [2]: 113 % of control

Cc1ccc(S(=O)(=O)OCC2OC3(COS(=O)(=O)c4ccc(C)cc4)OC(C)(C)OC3C2O)cc1 (stereo unspecified)
T/C [11]: 93 % of control | T/C [12]: 101 % of control

CCSC(CC(OC(C)=O)C(OC(C)=O)C(COC(C)=O)OC(C)=O)n1cnc2c(Cl)ncnc21 (stereo unspecified)
T/C (dose: 12.5 mg/kg/injection, schedule: Q01DX005 (ip), vehicle: other): 98 % of control | T/C (dose: 25.0 mg/kg/injection, schedule: Q01DX005 (ip), vehicle: other): 96 % of control | T/C (dose: 50.0 mg/kg/injection, schedule: Q01DX005 (ip), vehicle: other): 95 % of control | T/C (dose: 100.0 mg/kg/injection, schedule: Q01DX005 (ip), vehicle: other): 104 % of control | T/C (dose: 200.0 mg/kg/injection, schedule: Q01DX005 (ip), vehicle: other): 105 % of control

Cc1cc(Nc2ccccc2)nc(C)n1
T/C [8]: 111 % of control | T/C [9]: 114 % of control

COc1ccc2[nH]c3c(c2c1)CSc1ccccc1-3
T/C (dose: 100.0 mg/kg/injection, schedule: Q04DX003 (ip), vehicle: acetone): 94 % of control | T/C (dose: 200.0 mg/kg/injection, schedule: Q04DX003 (ip), vehicle: acetone): 105 % of control | T/C (dose: 400.0 mg/kg/injection, schedule: Q04DX003 (ip), vehicle: acetone): 100 % of control

COc1cccc(CN2CCN(N=O)CC2)c1
T/C (dose: 12.5 mg/kg/injection, schedule: Q01DX009 (ip), vehicle: Klucel (hydroxypropylcellulose) (HPC)): 98 % of control | T/C (dose: 25.0 mg/kg/injection, schedule: Q01DX009 (ip), vehicle: Klucel (hydroxypropylcellulose) (HPC)): 93 % of control | T/C (dose: 50.0 mg/kg/injection, schedule: Q01DX009 (ip), vehicle: Klucel (hydroxypropylcellulose) (HPC)): 103 % of control | T/C (dose: 100.0 mg/kg/injection, schedule: Q01DX009 (ip), vehicle: Klucel (hydroxypropylcellulose) (HPC)): 103 % of control | T/C (dose: 200.0 mg/kg/injection, schedule: Q01DX009 (ip), vehicle: Klucel (hydroxypropylcellulose) (HPC)): 101 % of control | T/C (dose: 400.0 mg/kg/injection, schedule: Q01DX009 (ip), vehicle: Klucel (hydroxypropylcellulose) (HPC)): 93 % of control

CCCCCCCCCCCCCCCC(=O)N(C/C=C/CN(C(=O)CCCCCCCCCCCCCCC)C(C)CCCN(CC)CC)C(C)CCCN(CC)CC (stereo unspecified)
T/C (dose: 12.5 mg/kg/injection, schedule: Q01DX009 (ip), vehicle: other): 97 % of control | T/C (dose: 25.0 mg/kg/injection, schedule: Q01DX009 (ip), vehicle: other): 94 % of control

Cc1c(Cl)cccc1NC(=O)c1ccc([N+](=O)[O-])cc1
T/C [11]: 95 % of control | T/C [12]: 101 % of control | T/C [14]: 86 % of control

CC(C)CCCC(C)C1CCC2C3=CCC4CC(O)CCC4(C)C3CCC21C (stereo unspecified)
T/C [11]: 100 % of control | T/C [12]: 91 % of control | T/C [14]: 94 % of control

Cc1ccc(S(=O)(=O)N(CCCc2c(C)nc(N)nc2Nc2ccccc2)c2ccccc2)cc1
T/C (dose: 100.0 mg/kg/injection, schedule: Q01DX001 (ip), vehicle: saline with Tween-80): 92 % of control
